Source: ChEMBL document CHEMBL1201862, “PubChem BioAssay data set” (2004)
The source made the active and inactive calls.

Key:
[1] = target: T1, Peroxisome proliferator-activated receptor gamma (Homo sapiens, UniProt P37231); assay: PPARg transcriptional activation, reporter cells – cell-based, luminescence, assay provider, dose response (AID 504447); assay type: functional
T1 sequence (P37231 whole entry): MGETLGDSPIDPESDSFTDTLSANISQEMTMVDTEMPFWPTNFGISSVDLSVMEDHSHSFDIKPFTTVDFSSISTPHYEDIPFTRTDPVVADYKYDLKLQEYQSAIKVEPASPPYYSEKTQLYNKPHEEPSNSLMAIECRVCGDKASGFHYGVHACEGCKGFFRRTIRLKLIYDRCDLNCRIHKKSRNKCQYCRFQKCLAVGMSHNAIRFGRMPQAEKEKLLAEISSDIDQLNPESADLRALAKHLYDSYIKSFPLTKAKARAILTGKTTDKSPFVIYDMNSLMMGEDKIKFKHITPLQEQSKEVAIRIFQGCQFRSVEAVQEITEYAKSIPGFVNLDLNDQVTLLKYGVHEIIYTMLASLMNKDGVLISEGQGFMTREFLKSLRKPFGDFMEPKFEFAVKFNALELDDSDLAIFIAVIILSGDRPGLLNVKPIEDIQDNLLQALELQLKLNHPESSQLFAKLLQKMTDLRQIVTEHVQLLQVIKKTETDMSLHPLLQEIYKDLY

[2] = target: T1, Peroxisome proliferator-activated receptor gamma; assay: competitive ligand displacement at PPARg – biochemical, TR-FRET, LanthaScreen, PPARg partial agonist project, dose response (AID 504446)
[3] = target: T1, Peroxisome proliferator-activated receptor gamma; assay: competitive ligand displacement at PPARg – biochemical, fluorescence polarization, PolarScreen, PPARg partial agonist project, dose response (AID 504453)
[4] = target: Intestinal-type alkaline phosphatase (Homo sapiens, UniProt P09923); assay: human intestinal alkaline phosphatase activators, dose response, biochemical, luminescence, uHTS hits (AID 463120); assay type: functional
[5] = target: T2, Apoptotic protease-activating factor 1 (Homo sapiens, UniProt O14727); assay type: functional
T2 sequence (O14727 whole entry): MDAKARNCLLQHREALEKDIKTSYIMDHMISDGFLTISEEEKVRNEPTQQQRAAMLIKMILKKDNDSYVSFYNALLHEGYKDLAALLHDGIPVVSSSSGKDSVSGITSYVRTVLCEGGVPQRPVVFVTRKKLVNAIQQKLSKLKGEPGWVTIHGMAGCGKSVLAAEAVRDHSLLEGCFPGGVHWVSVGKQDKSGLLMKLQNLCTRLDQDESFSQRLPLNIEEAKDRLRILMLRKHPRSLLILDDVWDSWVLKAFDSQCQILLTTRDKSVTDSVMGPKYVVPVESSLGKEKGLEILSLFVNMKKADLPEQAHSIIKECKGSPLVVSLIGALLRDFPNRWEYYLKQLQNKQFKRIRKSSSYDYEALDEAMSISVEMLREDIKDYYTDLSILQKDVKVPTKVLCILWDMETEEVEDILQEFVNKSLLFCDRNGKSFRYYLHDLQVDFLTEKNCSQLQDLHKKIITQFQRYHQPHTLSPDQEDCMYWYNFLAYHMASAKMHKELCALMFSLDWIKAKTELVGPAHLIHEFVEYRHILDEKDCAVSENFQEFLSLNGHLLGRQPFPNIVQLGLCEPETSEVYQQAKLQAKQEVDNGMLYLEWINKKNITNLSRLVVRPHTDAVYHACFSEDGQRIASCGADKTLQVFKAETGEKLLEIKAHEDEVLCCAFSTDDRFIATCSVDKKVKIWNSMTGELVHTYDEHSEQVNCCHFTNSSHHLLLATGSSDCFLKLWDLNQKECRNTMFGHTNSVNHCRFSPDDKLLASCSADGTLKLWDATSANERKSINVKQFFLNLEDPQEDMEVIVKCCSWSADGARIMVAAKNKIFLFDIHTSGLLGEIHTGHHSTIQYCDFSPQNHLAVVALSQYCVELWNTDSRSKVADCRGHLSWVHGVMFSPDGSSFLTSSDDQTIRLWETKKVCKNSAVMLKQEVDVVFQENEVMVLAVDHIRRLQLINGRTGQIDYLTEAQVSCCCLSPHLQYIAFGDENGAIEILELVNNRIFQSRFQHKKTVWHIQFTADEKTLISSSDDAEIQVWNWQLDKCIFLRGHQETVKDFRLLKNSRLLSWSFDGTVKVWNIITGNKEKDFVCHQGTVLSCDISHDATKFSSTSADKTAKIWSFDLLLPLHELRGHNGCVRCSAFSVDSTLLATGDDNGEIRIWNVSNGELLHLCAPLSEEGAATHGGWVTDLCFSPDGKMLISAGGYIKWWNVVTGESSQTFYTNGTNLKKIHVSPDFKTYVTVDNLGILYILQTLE

Genome polyprotein = Genome polyprotein (dengue virus type 2, UniProt P29990); assay: flavivirus cap methylation enzyme inhibition – biochemical, confirmation dose response, primary screen (AID 588689); assay type: functional
Vero = assay: viability of Vero cells under compound – cytotoxicity control for flavivirus capping enzyme inhibitors (AID 588742); assay type: functional; details: Chlorocebus sabaeus
Protein RecA = target: T3, Protein RecA (Mycobacterium tuberculosis, UniProt P9WHJ3); assay: Fluorescence Cell-Free Homogeneous Dose Retest to Identify Inhibitors of RecA-Intein Splicing Activity. [Related pubchem assays (depositor defined):AID2097, AID2223, AID489010, AID492950]; assay type: functional
T3 sequence (P9WHJ3 whole entry): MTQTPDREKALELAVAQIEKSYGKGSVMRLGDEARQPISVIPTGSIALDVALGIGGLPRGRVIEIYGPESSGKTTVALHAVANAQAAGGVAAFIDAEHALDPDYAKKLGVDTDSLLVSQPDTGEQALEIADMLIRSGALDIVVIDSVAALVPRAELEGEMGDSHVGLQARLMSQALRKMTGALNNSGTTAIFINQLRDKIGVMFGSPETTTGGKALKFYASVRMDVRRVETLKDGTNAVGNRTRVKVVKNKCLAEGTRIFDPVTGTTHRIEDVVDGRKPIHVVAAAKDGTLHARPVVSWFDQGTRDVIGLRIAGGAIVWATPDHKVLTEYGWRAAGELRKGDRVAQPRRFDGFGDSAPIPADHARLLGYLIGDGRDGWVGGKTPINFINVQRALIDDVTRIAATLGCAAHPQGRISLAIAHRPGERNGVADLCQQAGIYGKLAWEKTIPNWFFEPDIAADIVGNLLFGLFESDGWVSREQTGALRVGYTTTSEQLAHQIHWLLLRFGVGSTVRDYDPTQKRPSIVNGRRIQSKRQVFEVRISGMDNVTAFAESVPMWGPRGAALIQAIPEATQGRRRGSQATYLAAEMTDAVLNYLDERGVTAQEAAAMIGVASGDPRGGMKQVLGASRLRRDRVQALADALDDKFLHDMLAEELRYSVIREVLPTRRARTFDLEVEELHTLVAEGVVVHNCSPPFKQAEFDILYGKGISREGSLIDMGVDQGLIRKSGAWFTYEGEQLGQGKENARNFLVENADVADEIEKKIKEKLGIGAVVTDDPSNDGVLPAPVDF

Hexokinase-1 = Hexokinase-1 (Homo sapiens, UniProt P19367); assay: HK1 enzyme activation by HKDC1 hits – biochemical, selectivity assay for HKDC1 activator project, dose response (AID 504762); assay type: functional
Hexokinase HKDC1 = target: T4, Hexokinase HKDC1 (Homo sapiens, UniProt Q2TB90); assay: activation of HKDC1 glucose phosphorylation – biochemical, W721R variant, dose response (AID 504730); assay type: functional
T4 sequence (Q2TB90 whole entry): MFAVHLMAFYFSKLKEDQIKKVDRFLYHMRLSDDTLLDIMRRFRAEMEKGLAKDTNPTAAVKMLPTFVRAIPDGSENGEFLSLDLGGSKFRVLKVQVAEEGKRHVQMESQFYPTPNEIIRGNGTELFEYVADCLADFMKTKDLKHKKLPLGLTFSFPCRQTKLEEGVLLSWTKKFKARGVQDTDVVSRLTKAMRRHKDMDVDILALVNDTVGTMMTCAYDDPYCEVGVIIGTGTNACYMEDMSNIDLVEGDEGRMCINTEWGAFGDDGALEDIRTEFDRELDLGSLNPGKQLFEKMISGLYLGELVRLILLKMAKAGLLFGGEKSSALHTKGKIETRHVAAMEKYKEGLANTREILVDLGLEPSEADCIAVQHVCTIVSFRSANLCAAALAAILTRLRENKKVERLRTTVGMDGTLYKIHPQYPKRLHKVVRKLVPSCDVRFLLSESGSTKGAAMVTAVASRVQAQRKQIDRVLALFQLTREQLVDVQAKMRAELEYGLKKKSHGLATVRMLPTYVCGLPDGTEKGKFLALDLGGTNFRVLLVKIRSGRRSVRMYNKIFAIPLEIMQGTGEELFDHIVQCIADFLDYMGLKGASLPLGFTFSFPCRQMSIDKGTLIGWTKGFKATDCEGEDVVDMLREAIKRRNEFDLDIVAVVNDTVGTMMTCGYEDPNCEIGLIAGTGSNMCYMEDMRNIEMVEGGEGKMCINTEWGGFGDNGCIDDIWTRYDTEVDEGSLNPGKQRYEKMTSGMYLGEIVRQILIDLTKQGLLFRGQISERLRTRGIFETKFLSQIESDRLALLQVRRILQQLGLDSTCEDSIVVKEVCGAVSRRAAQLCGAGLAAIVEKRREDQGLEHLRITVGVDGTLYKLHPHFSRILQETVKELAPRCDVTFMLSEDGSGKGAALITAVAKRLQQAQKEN

Cannabinoid receptor 1 [6] = target: T5, Cannabinoid receptor 1 (Homo sapiens, UniProt P21554); assay: SAR analysis of antagonists of the Cannabinoid Receptor 1 using an Image-Based Assay - Set 4. [Related pubchem assays (depositor defined):AID2013, AID2026]; assay type: functional
[7] = target: T6, G-protein coupled receptor 35 (Homo sapiens, UniProt Q9HC97); assay: SAR analysis of Antagonists of the GPR35 Receptor using an Image-Based Assay - Set 6. [Related pubchem assays (depositor defined):AID2013, AID2026]; assay type: functional
Cannabinoid receptor 2 [8] = target: T7, Cannabinoid receptor 2 (Homo sapiens, UniProt P34972); assay: SAR analysis of antagonists of the Cannabinoid Receptor 2 using an Image-Based Assay - Set 3. [Related pubchem assays (depositor defined):AID2013, AID2026]; assay type: functional
[9] = target: G-protein coupled receptor 55 (Homo sapiens, UniProt Q9Y2T6); assay: SAR Analysis of Selective Antagonists of GPR55 using an Image-Based Assay - Set 4. [Related pubchem assays (depositor defined):AID2013, AID2026]; assay type: functional;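 also: antagonism of response to 5 µM lysophosphatidylinositol agonist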
Cannabinoid receptor 2 [10] = target: T7, Cannabinoid receptor 2; assay: SAR analysis of agonists of the Cannabinoid Receptor 2 using an Image-Based Assay - Set 3. [Related pubchem assays (depositor defined):AID2013, AID2026]; assay type: functional
[11] = target: T6, G-protein coupled receptor 35; assay: SAR analysis of Agonists of the GPR35 Receptor using an Image-Based Assay - Set 4. [Related pubchem assays (depositor defined):AID2013, AID2026]; assay type: functional
Cannabinoid receptor 1 [12] = target: T5, Cannabinoid receptor 1; assay: SAR analysis of agonists of the Cannabinoid Receptor 1 using an Image-Based Assay - Set 4. [Related pubchem assays (depositor defined):AID2013, AID2026]; assay type: functional

T5 sequence (P21554 whole entry): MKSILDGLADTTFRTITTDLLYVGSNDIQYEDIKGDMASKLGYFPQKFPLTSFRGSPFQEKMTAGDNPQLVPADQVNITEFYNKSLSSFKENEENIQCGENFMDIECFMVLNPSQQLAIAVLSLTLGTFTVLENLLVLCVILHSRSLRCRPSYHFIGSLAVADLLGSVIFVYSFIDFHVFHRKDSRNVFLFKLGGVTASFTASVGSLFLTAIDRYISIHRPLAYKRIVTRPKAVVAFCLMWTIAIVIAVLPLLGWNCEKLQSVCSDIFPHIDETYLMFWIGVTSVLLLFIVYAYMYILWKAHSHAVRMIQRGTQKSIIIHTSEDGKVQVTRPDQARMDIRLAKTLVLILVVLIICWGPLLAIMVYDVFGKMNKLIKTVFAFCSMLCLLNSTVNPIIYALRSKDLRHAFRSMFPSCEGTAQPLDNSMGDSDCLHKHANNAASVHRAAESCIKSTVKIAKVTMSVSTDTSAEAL
T6 sequence (Q9HC97 whole entry): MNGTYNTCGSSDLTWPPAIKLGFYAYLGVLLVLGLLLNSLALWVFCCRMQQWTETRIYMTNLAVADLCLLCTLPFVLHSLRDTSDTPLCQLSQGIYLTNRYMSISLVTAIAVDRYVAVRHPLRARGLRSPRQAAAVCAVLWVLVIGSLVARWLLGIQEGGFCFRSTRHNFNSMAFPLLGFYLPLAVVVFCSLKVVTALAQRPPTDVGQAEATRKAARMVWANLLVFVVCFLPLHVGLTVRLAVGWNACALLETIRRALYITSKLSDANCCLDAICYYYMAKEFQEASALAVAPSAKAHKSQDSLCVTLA
T7 sequence (P34972 whole entry): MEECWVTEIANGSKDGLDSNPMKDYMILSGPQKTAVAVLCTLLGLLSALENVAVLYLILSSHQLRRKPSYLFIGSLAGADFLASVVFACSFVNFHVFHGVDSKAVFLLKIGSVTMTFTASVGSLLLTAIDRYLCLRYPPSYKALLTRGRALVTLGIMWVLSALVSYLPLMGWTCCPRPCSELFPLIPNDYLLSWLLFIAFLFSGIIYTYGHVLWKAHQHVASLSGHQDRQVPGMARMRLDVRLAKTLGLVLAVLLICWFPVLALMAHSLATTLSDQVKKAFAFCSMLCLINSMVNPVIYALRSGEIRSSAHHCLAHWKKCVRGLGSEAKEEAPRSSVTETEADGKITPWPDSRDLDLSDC
Chain of Hexokinase-1 (P19367 whole entry): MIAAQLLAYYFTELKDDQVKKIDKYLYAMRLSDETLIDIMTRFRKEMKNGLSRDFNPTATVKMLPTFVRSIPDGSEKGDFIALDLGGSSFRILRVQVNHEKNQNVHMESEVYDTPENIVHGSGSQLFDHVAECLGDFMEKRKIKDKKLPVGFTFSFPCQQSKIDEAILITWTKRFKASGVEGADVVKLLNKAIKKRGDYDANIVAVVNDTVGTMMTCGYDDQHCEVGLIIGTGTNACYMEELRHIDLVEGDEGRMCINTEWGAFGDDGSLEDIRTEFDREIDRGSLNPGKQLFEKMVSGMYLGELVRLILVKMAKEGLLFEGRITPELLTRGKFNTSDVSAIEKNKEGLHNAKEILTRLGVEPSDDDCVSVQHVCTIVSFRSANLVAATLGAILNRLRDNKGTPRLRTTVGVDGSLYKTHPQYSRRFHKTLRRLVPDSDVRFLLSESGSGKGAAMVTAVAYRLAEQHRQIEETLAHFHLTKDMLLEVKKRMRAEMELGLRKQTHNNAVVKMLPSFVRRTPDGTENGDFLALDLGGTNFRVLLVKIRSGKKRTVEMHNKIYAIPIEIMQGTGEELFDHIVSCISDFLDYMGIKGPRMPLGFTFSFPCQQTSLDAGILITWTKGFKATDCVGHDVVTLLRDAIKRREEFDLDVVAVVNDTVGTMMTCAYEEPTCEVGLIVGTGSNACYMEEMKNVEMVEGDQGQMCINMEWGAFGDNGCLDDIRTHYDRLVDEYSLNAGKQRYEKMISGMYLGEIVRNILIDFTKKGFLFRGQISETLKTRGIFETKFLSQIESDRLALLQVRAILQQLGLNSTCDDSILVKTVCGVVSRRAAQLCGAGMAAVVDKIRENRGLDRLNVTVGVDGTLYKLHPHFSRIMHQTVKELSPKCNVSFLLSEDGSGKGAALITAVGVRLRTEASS
Chain of G-protein coupled receptor 55 (Q9Y2T6 whole entry): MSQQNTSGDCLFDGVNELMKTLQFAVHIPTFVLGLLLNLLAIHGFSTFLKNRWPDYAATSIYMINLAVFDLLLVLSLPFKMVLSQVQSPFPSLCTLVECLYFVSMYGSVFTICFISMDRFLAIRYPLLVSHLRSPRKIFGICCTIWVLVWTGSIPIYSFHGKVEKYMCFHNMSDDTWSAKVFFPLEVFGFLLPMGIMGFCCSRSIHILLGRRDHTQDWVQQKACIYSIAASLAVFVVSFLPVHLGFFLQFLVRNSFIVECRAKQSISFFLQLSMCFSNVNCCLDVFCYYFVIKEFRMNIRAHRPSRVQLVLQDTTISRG
Chain of Genome polyprotein (P29990 2492-3391 limits assumed): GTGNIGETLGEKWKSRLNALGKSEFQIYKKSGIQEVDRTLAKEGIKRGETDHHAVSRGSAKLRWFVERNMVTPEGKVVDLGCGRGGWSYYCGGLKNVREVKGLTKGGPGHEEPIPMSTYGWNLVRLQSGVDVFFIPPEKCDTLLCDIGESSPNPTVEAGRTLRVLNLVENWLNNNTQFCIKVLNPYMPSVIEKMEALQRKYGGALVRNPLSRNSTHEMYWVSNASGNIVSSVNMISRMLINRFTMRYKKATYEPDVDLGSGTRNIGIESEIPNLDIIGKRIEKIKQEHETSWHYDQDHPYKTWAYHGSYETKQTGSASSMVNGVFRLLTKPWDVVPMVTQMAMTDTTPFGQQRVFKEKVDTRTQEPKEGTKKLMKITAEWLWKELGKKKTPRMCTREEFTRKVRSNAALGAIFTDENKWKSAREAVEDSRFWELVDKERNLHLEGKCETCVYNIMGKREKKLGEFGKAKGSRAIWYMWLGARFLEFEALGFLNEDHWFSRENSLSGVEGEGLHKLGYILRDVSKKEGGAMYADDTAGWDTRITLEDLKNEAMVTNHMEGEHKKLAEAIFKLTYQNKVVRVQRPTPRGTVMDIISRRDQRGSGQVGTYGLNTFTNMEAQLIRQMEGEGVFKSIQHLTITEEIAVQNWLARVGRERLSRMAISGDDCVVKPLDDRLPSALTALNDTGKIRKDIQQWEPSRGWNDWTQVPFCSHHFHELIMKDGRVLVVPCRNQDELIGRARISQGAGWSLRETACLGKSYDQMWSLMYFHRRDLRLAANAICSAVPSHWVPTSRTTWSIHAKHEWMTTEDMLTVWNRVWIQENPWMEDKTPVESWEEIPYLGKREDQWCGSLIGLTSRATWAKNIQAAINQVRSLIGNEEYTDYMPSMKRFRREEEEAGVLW
Chain of Intestinal-type alkaline phosphatase (P09923 whole entry): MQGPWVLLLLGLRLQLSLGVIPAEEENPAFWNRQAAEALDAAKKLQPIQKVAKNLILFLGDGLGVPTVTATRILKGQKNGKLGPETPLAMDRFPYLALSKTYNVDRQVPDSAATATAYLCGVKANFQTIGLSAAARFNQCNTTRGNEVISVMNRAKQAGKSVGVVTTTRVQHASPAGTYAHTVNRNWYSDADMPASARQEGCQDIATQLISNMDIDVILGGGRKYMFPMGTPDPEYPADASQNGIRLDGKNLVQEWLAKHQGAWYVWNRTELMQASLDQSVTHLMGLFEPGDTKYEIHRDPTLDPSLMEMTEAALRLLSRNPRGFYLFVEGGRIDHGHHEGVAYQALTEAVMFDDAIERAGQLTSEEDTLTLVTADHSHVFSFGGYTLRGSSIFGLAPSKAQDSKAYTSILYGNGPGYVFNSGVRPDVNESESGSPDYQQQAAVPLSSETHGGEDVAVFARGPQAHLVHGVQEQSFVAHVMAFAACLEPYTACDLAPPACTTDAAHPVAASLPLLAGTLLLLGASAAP

## CC(=O)N1N=C(c2ccccc2)CC1c1cn(Cc2ccccc2)c2ccccc12 (configuration not stated)
[1]
  EC50: 1.2 µM (active)
[2]
  IC50: 0.748 µM (active)
[3]
  IC50: 2 µM (active)

## CCCCCCCn1c(=N)n(CC(=O)c2ccco2)c2ccccc21
[4]
  EC50: > 100 µM (inactive)

## O=C1C(C2=C(O)c3ccccc3C2=O)=Nc2ccccc21
[5]
  IC50: 1.31 µM (active)
Genome polyprotein
  IC50: 56.9 µM (active)
Vero
  CC50: 26.6 µM (active)
Protein RecA
  EC50: 1.6 µM (active)
Hexokinase-1
  EC50: 37.1 µM (inactive)
Hexokinase HKDC1
  EC50: 24.7 µM (inactive)

## Cc1nc(N2CCN(C(=O)NCc3ccccc3)CC2)c2c3c(sc2n1)CCCC3
Cannabinoid receptor 1 [6]
  IC50: 6.66 µM (active)
[7]
  IC50: > 32 µM (inactive)
Cannabinoid receptor 2 [8]
  IC50: > 15.2 µM (inactive)
[9]
  IC50: 13 µM (inactive)
Cannabinoid receptor 2 [10]
  EC50: > 32 µM (inactive)
[11]
  EC50: > 32 µM (inactive)
Cannabinoid receptor 1 [12]
  EC50: > 32 µM (inactive)
